Values joined by “and” are separate entries in the source; they are usually repeats but may differ in a detail not shown here. Equal values may be shown once. Inconclusive results and toxic doses are left out. How the source made its calls: active means survival T/C of 150% or more; inactive means T/C below 125% in these data.
Tested on: BDF1 mice, P388 leukemia ip, median survival T/C
Assay: NCI In Vivo Anticancer Drug Screen. Data for tumor model P388 Leukemia (intraperitoneal) in B6D2F1 (BDF1) mice
Conditions: endpoint: median survival time, higher = longer survival
Outline: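 Transplantable tumour in mice; compound vs vehicle dosing; survival scored; ratio of treated to control reported.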

[1] = dose: 50.0 mg/kg/injection, schedule: Q01DX009 (ip), vehicle: saline with Tween-80
[2] = dose: 100.0 mg/kg/injection, schedule: Q01DX009 (ip), vehicle: saline with Tween-80
[3] = dose: 200.0 mg/kg/injection, schedule: Q01DX009 (ip), vehicle: saline with Tween-80
[4] = dose: 100.0 mg/kg/injection, schedule: Q04DX003 (ip), vehicle: saline
[5] = dose: 100.0 mg/kg/injection, schedule: Q01DX009 (ip), vehicle: Klucel (hydroxypropylcellulose) (HPC)
[6] = dose: 100.0 mg/kg/injection, schedule: Q04DX003 (ip), vehicle: Klucel (hydroxypropylcellulose) (HPC)
[7] = dose: 200.0 mg/kg/injection, schedule: Q01DX009 (ip), vehicle: Klucel (hydroxypropylcellulose) (HPC)
[8] = dose: 200.0 mg/kg/injection, schedule: Q04DX003 (ip), vehicle: Klucel (hydroxypropylcellulose) (HPC)
[9] = dose: 400.0 mg/kg/injection, schedule: Q01DX009 (ip), vehicle: Klucel (hydroxypropylcellulose) (HPC)
[10] = dose: 400.0 mg/kg/injection, schedule: Q04DX003 (ip), vehicle: Klucel (hydroxypropylcellulose) (HPC)

Measured: T/C

Clc1ccc(CNc2ncnc3[nH]ncc23)c(Cl)c1
inactive: [1] 104 % of control | [2] 100 % of control | [3] 90 % of control

N=c1c(C(N)=O)cnc2n1CCCCC2
inactive: [4] 109 % of control

c1cn[nH]c1
inactive: dose: 4.0 mg/kg/injection, schedule: Q01DX010 (ip), vehicle: water 100 % of control | dose: 8.0 mg/kg/injection, schedule: Q01DX010 (ip), vehicle: water 90 % of control

S=c1nc2[nH]c3ccccc3c2n[nH]1
inactive: dose: 6.25 mg/kg/injection, schedule: Q01DX009 (ip), vehicle: saline with Tween-80 100 % of control | dose: 12.5 mg/kg/injection, schedule: Q01DX009 (ip), vehicle: saline with Tween-80 97 % of control | dose: 25.0 mg/kg/injection, schedule: Q01DX009 (ip), vehicle: saline with Tween-80 88 % of control | [1] 96 % of control | [2] 98 % of control | [3] 96 % of control

CCOC(=O)C(C)C(=O)Cc1cc(OC)c(C)cc1Br (stereo not given)
inactive: dose: 50.0 mg/kg/injection, schedule: Q04DX003 (ip), vehicle: Klucel (hydroxypropylcellulose) (HPC) 100 % of control | [5] 110 % of control | [6] 91 % of control | [7] 105 % of control | [8] 95 % of control | [9] 100 % of control | [10] 95 % of control

CC(C)=CCOc1ccc(C(=O)/C=C/c2ccccc2)c(O)c1
inactive: dose: 1.25 mg/kg/injection, schedule: Q01DX009 (ip), vehicle: Klucel (hydroxypropylcellulose) (HPC) 108 % of control | dose: 2.5 mg/kg/injection, schedule: Q01DX009 (ip), vehicle: Klucel (hydroxypropylcellulose) (HPC) 101 % of control | dose: 5.0 mg/kg/injection, schedule: Q01DX009 (ip), vehicle: Klucel (hydroxypropylcellulose) (HPC) 107 % of control | dose: 10.0 mg/kg/injection, schedule: Q01DX009 (ip), vehicle: Klucel (hydroxypropylcellulose) (HPC) 91 % of control | dose: 20.0 mg/kg/injection, schedule: Q01DX009 (ip), vehicle: Klucel (hydroxypropylcellulose) (HPC) 104 % of control | dose: 40.0 mg/kg/injection, schedule: Q01DX009 (ip), vehicle: Klucel (hydroxypropylcellulose) (HPC) 89 % of control

O=C(NP(=O)(N1CC1)N1CC1)c1cc(I)ccc1I
104 % of control and 202 % of control: dose: 1.0 mg/kg/injection, schedule: Q01DX009 (ip), vehicle: saline
inactive: dose: 1.0 mg/kg/injection, schedule: Q01DX001 (oral), vehicle: saline 102 % of control | dose: 1.0 mg/kg/injection, schedule: Q01DX009 (ip), vehicle: saline with Tween-80 110 % of control | dose: 2.0 mg/kg/injection, schedule: Q01DX001 (oral), vehicle: saline 100 % of control | dose: 2.0 mg/kg/injection, schedule: Q01DX009 (ip), vehicle: saline with Tween-80 101 % of control | dose: 4.0 mg/kg/injection, schedule: Q01DX001 (oral), vehicle: saline 101 % of control | dose: 4.0 mg/kg/injection, schedule: Q01DX009 (ip), vehicle: saline with Tween-80 105 % of control | dose: 8.0 mg/kg/injection, schedule: Q01DX001 (oral), vehicle: saline 113 % of control | dose: 16.0 mg/kg/injection, schedule: Q01DX001 (oral), vehicle: saline 113 % of control | dose: 64.0 mg/kg/injection, schedule: Q01DX009 (ip), vehicle: saline with Tween-80 112 % of control | dose: 128.0 mg/kg/injection, schedule: Q01DX009 (ip), vehicle: saline 123 % of control
active: dose: 8.0 mg/kg/injection, schedule: Q01DX009 (ip), vehicle: saline 232 % of control and 150 % of control | dose: 16.0 mg/kg/injection, schedule: Q01DX009 (ip), vehicle: saline with Tween-80 214 % of control | dose: 16.0 mg/kg/injection, schedule: Q01DX009 (ip), vehicle: saline 177 % of control and 191 % of control | dose: 32.0 mg/kg/injection, schedule: Q01DX009 (ip), vehicle: saline with Tween-80 177 % of control | dose: 64.0 mg/kg/injection, schedule: Q01DX001 (oral), vehicle: saline 150 % of control | dose: 256.0 mg/kg/injection, schedule: Q01DX001 (oral), vehicle: saline 161 % of control
96 % of control and 222 % of control: dose: 4.0 mg/kg/injection, schedule: Q01DX009 (ip), vehicle: saline
93 % of control and 207 % of control: dose: 32.0 mg/kg/injection, schedule: Q01DX009 (ip), vehicle: saline

CCOC(=O)C1=C(N)n2c(s/c(=C/c3ccc(N(C)C)cc3)c2=O)=C(C(=O)OCC)C1c1ccc(N(C)C)cc1 (stereo not given)
inactive: dose: 50.0 mg/kg/injection, schedule: Q01DX005 (ip), vehicle: saline with Tween-80 101 % of control | dose: 100.0 mg/kg/injection, schedule: Q01DX005 (ip), vehicle: saline with Tween-80 97 % of control | dose: 200.0 mg/kg/injection, schedule: Q01DX005 (ip), vehicle: saline with Tween-80 99 % of control

CC[N+](C)(CC)CCC[n+]1c(-c2ccccc2)c2cc(N)ccc2c2ccc(N)cc21
inactive: dose: 1.5 mg/kg/injection, schedule: Q01DX009 (ip), vehicle: saline 107 % of control | dose: 3.0 mg/kg/injection, schedule: Q01DX009 (ip), vehicle: saline 100 % of control | dose: 3.12 mg/kg/injection, schedule: Q04DX003 (ip), vehicle: saline 100 % of control | dose: 6.25 mg/kg/injection, schedule: Q04DX003 (ip), vehicle: saline 100 % of control

Cc1cc(C)c(C)[nH]1
inactive: dose: 3.12 mg/kg/injection, schedule: Q01DX009 (ip), vehicle: water 87 % of control | dose: 6.25 mg/kg/injection, schedule: Q01DX009 (ip), vehicle: water 111 % of control | dose: 12.5 mg/kg/injection, schedule: Q01DX009 (ip), vehicle: water 105 % of control | dose: 12.5 mg/kg/injection, schedule: Q04DX003 (ip), vehicle: water 91 % of control | dose: 25.0 mg/kg/injection, schedule: Q01DX009 (ip), vehicle: water 103 % of control | dose: 25.0 mg/kg/injection, schedule: Q04DX003 (ip), vehicle: water 114 % of control | dose: 50.0 mg/kg/injection, schedule: Q01DX009 (ip), vehicle: water 97 % of control | dose: 50.0 mg/kg/injection, schedule: Q04DX003 (ip), vehicle: water 107 % of control

CCCCCCCCCC(=O)NN1CCOCC1
inactive: dose: 100.0 mg/kg/injection, schedule: Q01DX001 (ip), vehicle: saline with Tween-80 104 % of control | dose: 200.0 mg/kg/injection, schedule: Q01DX001 (ip), vehicle: saline with Tween-80 120 % of control | dose: 400.0 mg/kg/injection, schedule: Q01DX001 (ip), vehicle: saline with Tween-80 104 % of control

NC(=O)n1nccc1N
inactive: dose: 100.0 mg/kg/injection, schedule: Q01DX009 (ip), vehicle: saline 100 % of control | [4] 105 % of control | dose: 200.0 mg/kg/injection, schedule: Q01DX009 (ip), vehicle: saline 100 % of control | dose: 200.0 mg/kg/injection, schedule: Q04DX003 (ip), vehicle: saline 115 % of control | dose: 400.0 mg/kg/injection, schedule: Q01DX009 (ip), vehicle: saline 90 % of control | dose: 400.0 mg/kg/injection, schedule: Q04DX003 (ip), vehicle: saline 110 % of control

COc1cc([N+](=O)[O-])c(Cl)cc1NS(=O)(=O)c1ccccc1
inactive: dose: 67.0 mg/kg/injection, schedule: Q01DX009 (ip), vehicle: saline with Tween-80 100 % of control and 108 % of control | [2] 100 % of control and 111 % of control | dose: 100.0 mg/kg/injection, schedule: Q04DX003 (ip), vehicle: saline with Tween-80 103 % of control | dose: 150.0 mg/kg/injection, schedule: Q01DX009 (ip), vehicle: saline with Tween-80 100 % of control and 111 % of control | [3] 120 % of control | dose: 200.0 mg/kg/injection, schedule: Q04DX003 (ip), vehicle: saline with Tween-80 92 % of control | dose: 400.0 mg/kg/injection, schedule: Q01DX009 (ip), vehicle: saline with Tween-80 105 % of control | dose: 400.0 mg/kg/injection, schedule: Q04DX003 (ip), vehicle: saline with Tween-80 96 % of control

CC1CCC2(OC1)OC1CC3C4CCC5CC(O)C(O)CC5(C)C4CCC3(C)C1C2C (stereo not given)
inactive: dose: 100.0 mg/kg/injection, schedule: Q04DX003 (ip), vehicle: other 91 % of control | dose: 200.0 mg/kg/injection, schedule: Q04DX003 (ip), vehicle: other 87 % of control | dose: 400.0 mg/kg/injection, schedule: Q04DX003 (ip), vehicle: other 87 % of control

Cc1c(C)c(Cl)c(C)c(Cl)c1O
inactive: [5] 109 % of control | [6] 100 % of control | [7] 100 % of control | [8] 104 % of control | [9] 109 % of control | [10] 100 % of control

From PubChem BioAssay AID328 (DTP/NCI, 2004)
